How the values were obtained:
[1] = test system: MCF10A cells; assay: Cell growth study (SRB assay), MCF10A; type: cell-based; conditions: 0.2% serum medium, four days
Description: Either 4T1 cells or MCF10A cells were seeded in 96-well plate at 5×10^3 cells per well. […] After incubation for four days, cell viability was determined by SRB assay.

[2] = test system: MCF10A cells; assay: Wound healing assay; type: cell-based; conditions: TGF-β1 2 ng/mL, 1 μM, 16 h
Description: MCF10A cells were seeded at 2×10^5 cells/well in 6-well plate. When each well was occupied by cells over 80% of the area, 10% FBS was changed to 0.2% FBS. […] Wound area change from 0 to 16 h was calculated based on Image J program (National Institutes of Health, MD, USA) based on phase-contrast images of cells taken by microscope.

[3] = target: MEK1 wt (Homo sapiens (Human), UniProt Q02750); assay: Kinase selectivity profiling; type: biochemical
Description: (§1) Kinase assays were performed in 96-well FlashPlates™ from Perkin Elmer in a […]. […] The reaction cocktail contained 70 mM HEPES-NaOH, pH 7.5, 3 mM MnCl2, 3 μM Na3VO4, 1.2 mM DTT, 1 μM [γ-^33P]-ATP (approximately 6×10^5 cpm per well), protein kinase (variable amounts), and substrate (variable amounts). The reaction cocktails were incubated at 30° C. for 60 min. The reaction was stopped with 50 μL of 2% (v/v) H3PO4, and plates were aspirated and washed two times with 200 μL 0.9% (w/v) NaCl. ALL assays were performed with a BeckmanCoulter Biomek 2000/SL robotic system. Incorporation of ^33Pi (counting of “cpm”) was determined with a microplate scintillation counter.

[4] = target: ERK1 (Homo sapiens (Human), UniProt P27361); assay: Kinase selectivity profiling; type: biochemical
Description: as §1

[5] = target: CDK1/CycA (Homo sapiens (Human), UniProt P06493); assay: Kinase selectivity profiling; type: biochemical
Description: as §1

[6] = target: ALK1 (Homo sapiens (Human), UniProt P37023); assay: Kinase selectivity profiling; type: biochemical
Description: as §1

[7] = target: PDGFRβ (Homo sapiens (Human), UniProt P09619); assay: Kinase selectivity profiling; type: biochemical
Description: as §1

[8] = target: VEGF-R3 (Homo sapiens (Human), UniProt P35916); assay: Kinase selectivity profiling; type: biochemical
Description: as §1

[9] = target: ALK2 (Homo sapiens (Human), UniProt Q04771); assay: Kinase selectivity profiling; type: biochemical
Description: as §1

[10] = target: PKCα (Homo sapiens (Human), UniProt P17252); assay: Kinase selectivity profiling; type: biochemical
Description: as §1

[11] = target: PDGFRα wt (Homo sapiens (Human), UniProt P16234); assay: Kinase selectivity profiling; type: biochemical
Description: as §1

[12] = target: AKT1 (Homo sapiens (Human), UniProt P31749); assay: Kinase selectivity profiling; type: biochemical
Description: as §1

[13] = read-out: % inhibition at 1 μM, 1 μM
[14] = read-out: % inhibition at 10 μM, 10 μM

MEK1 wt, sequence (Q02750 whole entry): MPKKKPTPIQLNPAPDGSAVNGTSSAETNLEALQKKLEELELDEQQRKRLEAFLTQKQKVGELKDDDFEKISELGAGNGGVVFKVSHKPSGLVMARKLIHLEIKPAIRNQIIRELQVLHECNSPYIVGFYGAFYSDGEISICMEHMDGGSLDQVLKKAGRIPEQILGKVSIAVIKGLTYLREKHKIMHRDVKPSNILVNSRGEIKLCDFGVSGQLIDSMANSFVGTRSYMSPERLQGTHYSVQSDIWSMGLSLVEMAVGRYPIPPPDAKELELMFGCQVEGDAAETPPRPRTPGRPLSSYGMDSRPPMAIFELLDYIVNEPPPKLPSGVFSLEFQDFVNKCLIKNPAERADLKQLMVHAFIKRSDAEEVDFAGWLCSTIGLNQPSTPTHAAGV
PDGFRα wt, sequence (P16234 24-1089): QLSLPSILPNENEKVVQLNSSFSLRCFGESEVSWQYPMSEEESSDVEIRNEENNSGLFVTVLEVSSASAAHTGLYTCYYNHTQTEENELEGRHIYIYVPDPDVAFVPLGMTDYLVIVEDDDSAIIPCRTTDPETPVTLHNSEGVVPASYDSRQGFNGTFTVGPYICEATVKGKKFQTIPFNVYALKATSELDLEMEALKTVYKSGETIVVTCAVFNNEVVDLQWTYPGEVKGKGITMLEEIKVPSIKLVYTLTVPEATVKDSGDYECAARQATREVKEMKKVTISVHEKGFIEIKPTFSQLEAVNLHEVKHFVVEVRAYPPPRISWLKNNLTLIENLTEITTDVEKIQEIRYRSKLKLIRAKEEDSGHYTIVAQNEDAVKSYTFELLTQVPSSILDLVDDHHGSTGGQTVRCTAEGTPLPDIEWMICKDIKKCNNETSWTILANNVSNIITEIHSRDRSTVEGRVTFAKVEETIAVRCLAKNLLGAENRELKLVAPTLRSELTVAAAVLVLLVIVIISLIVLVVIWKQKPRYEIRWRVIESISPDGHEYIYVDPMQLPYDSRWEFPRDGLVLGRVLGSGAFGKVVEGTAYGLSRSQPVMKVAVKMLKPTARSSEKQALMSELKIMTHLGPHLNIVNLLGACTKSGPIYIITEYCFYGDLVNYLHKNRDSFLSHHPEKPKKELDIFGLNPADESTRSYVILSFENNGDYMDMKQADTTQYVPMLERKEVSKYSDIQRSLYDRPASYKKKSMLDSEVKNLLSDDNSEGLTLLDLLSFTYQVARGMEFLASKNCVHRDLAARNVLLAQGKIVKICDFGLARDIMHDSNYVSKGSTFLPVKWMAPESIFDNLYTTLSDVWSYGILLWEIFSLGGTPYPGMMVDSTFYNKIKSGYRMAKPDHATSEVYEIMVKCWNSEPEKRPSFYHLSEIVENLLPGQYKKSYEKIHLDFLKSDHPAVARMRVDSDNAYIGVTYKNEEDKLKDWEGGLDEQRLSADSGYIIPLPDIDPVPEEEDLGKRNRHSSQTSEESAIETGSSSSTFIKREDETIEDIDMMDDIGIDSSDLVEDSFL
PDGFRβ, sequence (P09619 33-1106, species assumed): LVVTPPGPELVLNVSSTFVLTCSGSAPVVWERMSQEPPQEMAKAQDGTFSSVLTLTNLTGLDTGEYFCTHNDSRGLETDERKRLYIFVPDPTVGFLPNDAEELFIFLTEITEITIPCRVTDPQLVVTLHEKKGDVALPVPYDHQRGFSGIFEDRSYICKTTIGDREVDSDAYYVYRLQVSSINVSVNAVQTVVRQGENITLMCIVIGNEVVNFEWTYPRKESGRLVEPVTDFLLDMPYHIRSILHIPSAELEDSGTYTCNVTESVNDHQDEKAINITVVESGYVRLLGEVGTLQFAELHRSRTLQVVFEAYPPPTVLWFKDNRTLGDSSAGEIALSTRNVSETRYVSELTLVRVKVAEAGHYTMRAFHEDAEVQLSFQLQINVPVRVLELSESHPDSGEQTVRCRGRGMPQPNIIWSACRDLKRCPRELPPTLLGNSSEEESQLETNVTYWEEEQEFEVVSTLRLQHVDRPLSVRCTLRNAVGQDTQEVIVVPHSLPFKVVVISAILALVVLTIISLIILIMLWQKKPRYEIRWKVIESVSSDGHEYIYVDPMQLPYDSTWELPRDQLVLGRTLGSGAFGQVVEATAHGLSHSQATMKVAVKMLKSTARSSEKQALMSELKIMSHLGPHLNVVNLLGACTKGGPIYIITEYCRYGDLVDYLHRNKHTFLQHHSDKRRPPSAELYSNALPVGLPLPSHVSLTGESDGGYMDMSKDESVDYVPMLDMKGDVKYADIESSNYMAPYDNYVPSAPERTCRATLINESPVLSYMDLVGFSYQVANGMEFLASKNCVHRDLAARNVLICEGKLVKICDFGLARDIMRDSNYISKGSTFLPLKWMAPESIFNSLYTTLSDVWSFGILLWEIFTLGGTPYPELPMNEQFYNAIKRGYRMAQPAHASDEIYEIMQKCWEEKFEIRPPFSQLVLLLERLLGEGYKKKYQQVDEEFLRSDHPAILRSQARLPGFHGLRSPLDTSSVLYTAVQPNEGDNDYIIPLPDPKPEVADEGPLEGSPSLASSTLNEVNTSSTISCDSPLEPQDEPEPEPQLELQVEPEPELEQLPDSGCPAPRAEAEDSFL
ALK2, sequence (Q04771 21-509, species assumed): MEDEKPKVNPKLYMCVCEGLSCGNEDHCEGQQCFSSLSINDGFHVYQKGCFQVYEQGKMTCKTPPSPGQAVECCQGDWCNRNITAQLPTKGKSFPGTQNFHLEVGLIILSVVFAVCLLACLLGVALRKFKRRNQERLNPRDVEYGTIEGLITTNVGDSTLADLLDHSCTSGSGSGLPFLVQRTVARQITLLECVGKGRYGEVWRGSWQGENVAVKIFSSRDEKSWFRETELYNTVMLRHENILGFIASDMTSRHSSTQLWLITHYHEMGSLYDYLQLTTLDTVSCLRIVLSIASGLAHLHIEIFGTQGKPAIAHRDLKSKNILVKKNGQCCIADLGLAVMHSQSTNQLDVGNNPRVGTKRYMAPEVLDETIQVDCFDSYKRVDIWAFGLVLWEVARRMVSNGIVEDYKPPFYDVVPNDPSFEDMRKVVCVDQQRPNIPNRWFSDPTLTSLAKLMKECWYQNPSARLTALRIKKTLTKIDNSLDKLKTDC
ERK1, sequence (P27361 whole entry, species assumed): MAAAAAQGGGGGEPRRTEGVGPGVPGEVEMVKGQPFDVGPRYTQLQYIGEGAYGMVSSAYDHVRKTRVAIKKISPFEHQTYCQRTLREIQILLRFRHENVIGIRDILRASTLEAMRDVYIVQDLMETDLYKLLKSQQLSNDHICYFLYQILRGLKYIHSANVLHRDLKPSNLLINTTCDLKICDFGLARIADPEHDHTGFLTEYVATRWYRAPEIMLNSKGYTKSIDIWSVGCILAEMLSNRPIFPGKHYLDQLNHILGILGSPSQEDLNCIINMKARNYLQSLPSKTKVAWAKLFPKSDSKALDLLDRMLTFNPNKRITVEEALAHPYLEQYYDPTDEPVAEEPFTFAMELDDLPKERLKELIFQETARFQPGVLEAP
CDK1/CycA, sequence (P06493 whole entry, species assumed): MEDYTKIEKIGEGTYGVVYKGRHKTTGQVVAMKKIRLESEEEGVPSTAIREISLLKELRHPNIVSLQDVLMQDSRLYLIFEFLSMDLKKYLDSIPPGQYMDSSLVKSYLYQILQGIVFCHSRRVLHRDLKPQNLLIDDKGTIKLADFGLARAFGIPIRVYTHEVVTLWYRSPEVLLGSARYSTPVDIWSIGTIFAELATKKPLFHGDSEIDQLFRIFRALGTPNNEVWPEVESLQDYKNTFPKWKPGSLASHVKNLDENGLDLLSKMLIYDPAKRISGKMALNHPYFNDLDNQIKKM
CDK1/CycA, sequence (P20248 whole entry partner, species assumed): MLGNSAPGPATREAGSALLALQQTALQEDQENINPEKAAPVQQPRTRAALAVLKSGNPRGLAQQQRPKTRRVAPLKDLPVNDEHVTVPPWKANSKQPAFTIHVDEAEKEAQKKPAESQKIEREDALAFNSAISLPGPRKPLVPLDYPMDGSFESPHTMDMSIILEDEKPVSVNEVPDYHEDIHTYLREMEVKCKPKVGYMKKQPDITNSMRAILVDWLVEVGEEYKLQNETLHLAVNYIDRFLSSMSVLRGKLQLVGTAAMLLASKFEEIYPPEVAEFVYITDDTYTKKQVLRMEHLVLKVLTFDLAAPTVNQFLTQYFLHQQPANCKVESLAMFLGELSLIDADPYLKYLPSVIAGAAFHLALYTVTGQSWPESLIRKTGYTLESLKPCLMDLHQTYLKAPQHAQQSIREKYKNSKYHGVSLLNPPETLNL

`Cc1cccc(-c2[nH]c(CNc3ccccc3F)nc2-c2ccc3ncnn3c2)n1` [Example 2, N-((4-([1,2,4]triazolo[1,5-a]pyridin-6-yl)-5-(6-methylpyridin-2-yl)-1H-imidazol-2-yl)methyl)-2-fluoroaniline] was tested, and the MCF10A cell growth [1] was “slightly increased”, the TGF-β1-induced cell migration [2] was “suppressed” and the inhibition at 1 µM [3, 13] was 14%. For the same compound, the inhibition at 10 µM [3, 14] was 47%, the inhibition at 1 µM [4, 13] was 17% and the inhibition at 10 µM [4, 14] was 66%. It also gave an inhibition at 1 µM [5, 13] of 5%, an inhibition at 10 µM [5, 14] of 2% and an inhibition at 1 µM [6, 13] of 20%. It also gave an inhibition at 10 µM [6, 14] of 66%, an inhibition at 1 µM [7, 13] of 47% and an inhibition at 10 µM [7, 14] of 87%. The IC50 [8] was 257 nM, the inhibition at 1 µM [9, 13] was 17% and the inhibition at 10 µM [9, 14] was 71%. For the same compound, the inhibition at 1 µM [10, 13] was -9%, the inhibition at 10 µM [10, 14] was 4% and the inhibition at 1 µM [11, 13] was 53%. It also gave an inhibition at 10 µM [11, 14] of 91%, an inhibition at 1 µM [12, 13] of 0% and an inhibition at 10 µM [12, 14] of 3%.
